Assay results from ChEMBL document CHEMBL5380794, “Discovery of a Potent and Selective STAT5 PROTAC Degrader with Strong Antitumor Activity In Vivo in Acute Myeloid Leukemia” (J Med Chem, 2023).

Target: T1, Signal transducer and activator of transcription 5A (Homo sapiens, UniProt P42229)
T1 sequence (P42229 whole entry): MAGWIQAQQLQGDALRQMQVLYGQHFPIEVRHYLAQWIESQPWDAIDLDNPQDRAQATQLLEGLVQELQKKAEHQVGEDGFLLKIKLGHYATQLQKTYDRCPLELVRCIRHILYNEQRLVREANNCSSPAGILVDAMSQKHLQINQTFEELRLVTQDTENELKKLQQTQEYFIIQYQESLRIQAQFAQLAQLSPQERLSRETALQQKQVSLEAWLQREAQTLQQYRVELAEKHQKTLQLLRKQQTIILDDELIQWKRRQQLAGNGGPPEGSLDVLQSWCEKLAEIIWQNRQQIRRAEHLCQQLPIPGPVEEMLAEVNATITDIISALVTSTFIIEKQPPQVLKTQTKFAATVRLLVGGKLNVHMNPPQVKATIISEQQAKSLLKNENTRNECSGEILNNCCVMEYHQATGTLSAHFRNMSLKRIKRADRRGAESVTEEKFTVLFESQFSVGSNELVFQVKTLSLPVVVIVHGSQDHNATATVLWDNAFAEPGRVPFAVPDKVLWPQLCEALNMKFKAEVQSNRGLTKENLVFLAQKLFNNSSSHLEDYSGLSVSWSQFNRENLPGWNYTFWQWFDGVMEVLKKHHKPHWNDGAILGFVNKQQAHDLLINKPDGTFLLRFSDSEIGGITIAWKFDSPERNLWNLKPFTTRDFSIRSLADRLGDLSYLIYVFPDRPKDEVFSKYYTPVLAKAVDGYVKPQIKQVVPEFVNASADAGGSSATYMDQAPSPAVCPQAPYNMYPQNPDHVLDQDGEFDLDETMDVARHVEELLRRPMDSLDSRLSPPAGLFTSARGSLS
Assay: Induction of STAT5 degradation in human SKNO-1 cells measured for 18 hrs by Western blot analysis
Format: cell-based

Structure (SMILES)	DC50 [µM]
Cc1ccc(N(CCC(=O)NCCCC#Cc2cccc3c2CN(C2CCC(=O)NC2=O)C3=O)C(=O)[C@@H]2CCCN2C(=O)[C@@H](NC(=O)c2cc3cc(C(F)(F)P(=O)(O)O)ccc3s2)C(C)(C)C)cc1 (stereo partly drawn)	0.31
CN(CCCC#Cc1cccc2c1CN(C1CCC(=O)NC1=O)C2=O)C(=O)CCN(C(=O)[C@@H]1CCCN1C(=O)[C@@H](NC(=O)c1cc2cc(C(F)(F)P(=O)(O)O)ccc2s1)C(C)(C)C)c1ccc2sccc2c1 (stereo partly drawn)	0.13
CC(C)(C)[C@H](NC(=O)c1cc2cc(C(F)(F)P(=O)(O)O)ccc2s1)C(=O)N1CCC[C@H]1C(=O)N(CCC(=O)NCCCC#Cc1cccc2c1CN(C1CCC(=O)NC1=O)C2=O)c1ccc(C#N)cc1 (stereo partly drawn)	> 5
CC(C)(C)[C@H](NC(=O)c1cc2cc(C(F)(F)P(=O)(O)O)ccc2s1)C(=O)N1CCC[C@H]1C(=O)N(CCC(=O)NCCCC#Cc1cccc2c1CN(C1CCC(=O)NC1=O)C2=O)c1cccc(C(F)(F)F)c1 (stereo partly drawn)	> 5
CC(C)(C)[C@H](NC(=O)c1cc2cc(C(F)(F)P(=O)(O)O)ccc2s1)C(=O)N1CCC[C@H]1C(=O)N(CCC(=O)NCCCC#Cc1cccc2c1CN(C1CCC(=O)NC1=O)C2=O)c1cccc(C#N)c1 (stereo partly drawn)	> 5
CN(CCCC#Cc1cccc2c1CN(C1CCC(=O)NC1=O)C2=O)C(=O)CCN(C(=O)[C@@H]1CCCN1C(=O)[C@@H](NC(=O)c1cc2cc(C(F)(F)P(=O)(O)O)ccc2s1)C(C)(C)C)c1ccc2scnc2c1 (stereo partly drawn)	0.33
CC(C)(C)[C@H](NC(=O)c1cc2cc(C(F)(F)P(=O)(O)O)ccc2s1)C(=O)N1CCC[C@H]1C(=O)N(CCC(=O)NCCCC#Cc1cccc2c1CN(C1CCC(=O)NC1=O)C2=O)c1ccc(Cl)cc1 (stereo partly drawn)	2.1
CC(C)(C)[C@H](NC(=O)c1cc2cc(C(F)(F)P(=O)(O)O)ccc2s1)C(=O)N1CCC[C@H]1C(=O)N(CCC(=O)NCCCC#Cc1cccc2c1CN(C1CCC(=O)NC1=O)C2=O)c1ccc(S(C)(=O)=O)cc1 (stereo partly drawn)	> 5
CC(C)(C)[C@H](NC(=O)c1cc2cc(C(F)(F)P(=O)(O)O)ccc2s1)C(=O)N1CCC[C@H]1C(=O)N(CCC(=O)NCCCC#Cc1cccc2c1CN(C1CCC(=O)NC1=O)C2=O)c1ccc(Cl)c(F)c1 (stereo partly drawn)	> 5
CN(CCCC#Cc1cccc2c1CN(C1CCC(=O)NC1=O)C2=O)C(=O)CCN(C(=O)[C@@H]1CCCN1C(=O)[C@@H](NC(=O)c1cc2cc(C(F)(F)P(=O)(O)O)ccc2s1)C(C)(C)C)c1ccc2occc2c1 (stereo partly drawn)	0.2
CC(C)(C)[C@H](NC(=O)c1cc2cc(C(F)(F)P(=O)(O)O)ccc2s1)C(=O)N1CCC[C@H]1C(=O)N(CCC(=O)NCCCC#Cc1cccc2c1CN(C1CCC(=O)NC1=O)C2=O)c1ccc(I)cc1 (stereo partly drawn)	0.53
CC(C)(C)[C@H](NC(=O)c1cc2cc(C(F)(F)P(=O)(O)O)ccc2s1)C(=O)N1CCC[C@H]1C(=O)N(CCC(=O)NCCCC#Cc1cccc2c1CN(C1CCC(=O)NC1=O)C2=O)c1ccc(-c2nccs2)cc1 (stereo partly drawn)	0.13
CC(C)(C)[C@H](NC(=O)c1cc2cc(C(F)(F)P(=O)(O)O)ccc2s1)C(=O)N1CCC[C@H]1C(=O)N(CCC(=O)NCCCC#Cc1cccc2c1CN(C1CCC(=O)NC1=O)C2=O)c1ccc2occc2c1 (stereo partly drawn)	0.33
CN(CCCC#Cc1cccc2c1CN(C1CCC(=O)NC1=O)C2=O)C(=O)CCN(C(=O)[C@@H]1CCCN1C(=O)[C@@H](NC(=O)c1cc2cc(C(F)(F)P(=O)(O)O)ccc2s1)C(C)(C)C)c1ccc2ccccc2c1 (stereo partly drawn)	0.13
CC(C)(C)[C@H](NC(=O)c1cc2cc(C(F)(F)P(=O)(O)O)ccc2s1)C(=O)N1CCC[C@H]1C(=O)N(CCC(=O)NCCCC#Cc1cccc2c1CN(C1CCC(=O)NC1=O)C2=O)c1ccc2ncsc2c1 (stereo partly drawn)	> 5
CC(C)(C)[C@H](NC(=O)c1cc2cc(C(F)(F)P(=O)(O)O)ccc2s1)C(=O)N1CCC[C@H]1C(=O)N(CCC(=O)NCCCC#Cc1cccc2c1CN(C1CCC(=O)NC1=O)C2=O)c1ccc(F)cc1 (stereo partly drawn)	> 5
CC(C)(C)[C@H](NC(=O)c1cc2cc(C(F)(F)P(=O)(O)O)ccc2s1)C(=O)N1CCC[C@H]1C(=O)N(CCCCCCCC#Cc1cccc2c1CN(C1CCC(=O)NC1=O)C2=O)c1ccc(-c2nccs2)cc1 (stereo partly drawn)	> 5
CC(C)(C)[C@H](NC(=O)c1cc2cc(C(F)(F)P(=O)(O)O)ccc2s1)C(=O)N1CCC[C@H]1C(=O)N(CCC(=O)NCCCC#Cc1cccc2c1CN(C1CCC(=O)NC1=O)C2=O)c1ccc2ccccc2c1 (stereo partly drawn)	0.21
